Six compounds from patent publication US20240409585A1, “MACROCYCLIC IMMUNOMODULATORS” (priority 2021, published 2024) can be followed below.

This assay deals with T1, PE-labeled human PD-L1-Ig binding to Jurkat cell line over-expressing human PD-1 (Jurkat-PD-1) (Homo sapiens, UniProt Q15116).
T1 construct: expressed in transfected cells; host or cells: Jurkat
Briefly: Jurkat-PD-1 Cell Binding High-Content Screening Assay (CBA): Method 1. The note with it: Jurkat-hPD-1 cells, PE-labeled PD-L1-Ig 20 nM final; read-out: Jurkat HPDL1 PD1 IC50 (uM) (Method 1).

Bridge positions count the residues as written; N and C are the ends. Square brackets hold non-standard residues; d marks the D form. Peptide text beside a SMILES is read from it. * marks the point of attachment. ξ: configuration not given here. dPhe(3-CF3) = N[C@H](Cc1cccc(C(F)(F)F)c1)C(=O)O; Phe(4-COOH) = N[C@@H](Cc1ccc(C(=O)O)cc1)C(=O)O; Bip = N[C@@H](Cc1ccc(-c2ccccc2)cc1)C(=O)O; Phe(3-Me) = Cc1cccc(C[C@H](N)C(=O)O)c1; 4Pal = N[C@@H](Cc1ccncc1)C(=O)O; Cha = N[C@@H](CC1CCCCC1)C(=O)O; Thr(3ξ) = CC(O)[C@H](N)C(=O)O; NMeNva = CCC[C@H](NC)C(=O)O; Carboxymethyl = O=C(O)C*; NMeA = CN[C@@H](C)C(=O)O; Dab = NCC[C@H](N)C(=O)O; ξC = NC(CS)C(=O)O; Acm = CC(=O)NC*

T1 sequence (Q15116 25-288): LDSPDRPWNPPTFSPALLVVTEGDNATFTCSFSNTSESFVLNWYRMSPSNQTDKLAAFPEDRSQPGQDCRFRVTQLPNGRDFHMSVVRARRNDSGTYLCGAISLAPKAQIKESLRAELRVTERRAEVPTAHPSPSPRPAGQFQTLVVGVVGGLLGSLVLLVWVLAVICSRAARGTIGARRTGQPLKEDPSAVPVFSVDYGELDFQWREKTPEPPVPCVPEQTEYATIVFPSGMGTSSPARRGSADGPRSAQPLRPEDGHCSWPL

What is called IC50 is the midpoint of a concentration-inhibition curve. `Cc1cccc(C[C@@H]2NC(=O)[C@H](CC(=O)O)NC(=O)[C@H](Cc3ccc(OCC(=O)O)cc3)NC(=O)[C@H](C(C)O)NC(=O)CSC[C@@H](C(N)=O)NC(=O)[C@H](C(C)O)NC(=O)[C@H](C(C)C)NC(=O)[C@H](CC3CCCCC3)NC(=O)[C@H](CCN)NC(=O)[C@@H](CC(C)C)NC(=O)[C@H](C)N(C)C(=O)[C@H](Cc3ccc(OCC(=O)O)cc3)NC(=O)[C@H](Cc3ccc(-c4ccccc4)cc3)NC(=O)[C@H](Cc3ccc(C(=O)O)cc3)NC2=O)c1` (stereo partly drawn) [Compound 2249] ({CH2CO}-[Thr(3ξ)]Y(Carboxymethyl)D[Phe(3-Me)][Phe(4-COOH)][Bip]Y(Carboxymethyl)[NMeA][dL][Dab][Cha]V[Thr(3ξ)]C-NH2; thioether N-14): the IC50 was determined as 0.08 µM. For `CC(C)C[C@@H]1NC(=O)[C@H](C)NC(=O)[C@@H](C)NC(=O)[C@H](C)N(C)C(=O)[C@H](CCC(=O)O)NC(=O)[C@H](Cc2ccc(-c3ccccc3)cc2)NC(=O)[C@H](CC(C)C)NC(=O)[C@H](Cc2c[nH]c3ccccc23)NC(=O)[C@H](CC(=O)O)NC(=O)[C@H](Cc2ccc(C(=O)O)cc2)NC(=O)[C@H](Cc2ccccc2)NC(=O)CSC[C@@H](C(=O)N[C@@H](C)C(N)=O)NC(=O)[C@H](CO)NC(=O)[C@H](C(C)C)NC1=O` [Compound 1773] ({CH2CO}-F[Phe(4-COOH)]DWL[Bip]E[NMeA][dA]ALVSCA-NH2; thioether N-14), the IC50 was found to be 0.05 µM. Under `CC(C)C[C@@H]1NC(=O)[C@H](CCCNC(=N)N)NC(=O)[C@@H](Cc2cccc(C(F)(F)F)c2)NC(=O)[C@H](C)N(C)C(=O)[C@H](CCCNC(=N)N)NC(=O)[C@H](Cc2ccc(-c3ccccc3)cc2)NC(=O)[C@H](C(C)C)NC(=O)[C@H](Cc2c[nH]c3ccccc23)NC(=O)[C@H](CC(=O)O)NC(=O)[C@H](Cc2ccc(O)cc2)NC(=O)[C@H](Cc2ccccc2)NC(=O)CSC[C@@H](C(=O)N[C@@H](C)C(N)=O)NC(=O)[C@H]([C@@H](C)O)NC(=O)[C@H](C(C)C)NC1=O` [Compound 1075] ({CH2CO}-FYDWV[Bip]R[NMeA][dPhe(3-CF3)]RLVTCA-NH2; thioether N-14) stands 0.55 µM; under `CC(=O)NCSC[C@@H]1NC(=O)[C@H](Cc2cccc(C)c2)NC(=O)[C@H](CC(=O)O)NC(=O)[C@H](Cc2ccncc2)NC(=O)[C@H](Cc2ccc(OCC(=O)O)cc2)NC(=O)CSCC(C(=O)NCC(N)=O)NC(=O)[C@H](CSCNC(C)=O)NC(=O)[C@H](C(C)C)NC(=O)[C@H](CC(C)C)NC(=O)[C@H](CC(N)=O)NC(=O)[C@@H](CC(C)C)NC(=O)[C@H](C)N(C)C(=O)[C@H](C(C)C)NC(=O)[C@H](Cc2ccc(-c3ccccc3)cc2)NC1=O` (stereo partly drawn) [Compound 1885] ({CH2CO}-Y(Carboxymethyl)[4Pal]D[Phe(3-Me)]C(Acm)[Bip]V[NMeA][dL]NLVC(Acm)[ξC]G-NH2; thioether N-14), 0.11 µM; under `CCC[C@H]1C(=O)N[C@H](CC(C)C)C(=O)N[C@@H](CCN)C(=O)N[C@@H](CC(C)C)C(=O)N[C@@H](C(C)C)C(=O)N[C@@H]([C@@H](C)O)C(=O)N[C@H](C(=O)N[C@@H](C)C(N)=O)CSCC(=O)N[C@@H](CC(N)=O)C(=O)N[C@@H](Cc2ccc(O)cc2)C(=O)N[C@@H](CC(=O)O)C(=O)N[C@@H](Cc2c[nH]c3ccccc23)C(=O)N[C@@H](C(C)C)C(=O)N[C@@H](Cc2ccc(-c3ccccc3)cc2)C(=O)N[C@@H](C(C)C)C(=O)N1C` [Compound 1369] ({CH2CO}-NYDWV[Bip]V[NMeNva][dL][Dab]LVTCA-NH2; thioether N-14), 0.03 µM. As to `CC[C@H](C)[C@@H]1NC(=O)[C@H](Cc2ccc(-c3ccccc3)cc2)NC(=O)[C@H](C(C)C)NC(=O)[C@H](Cc2c[nH]c3ccccc23)NC(=O)[C@H](CC(=O)O)NC(=O)[C@H](Cc2ccc(O)cc2)NC(=O)[C@H](Cc2ccncc2)NC(=O)CSC[C@@H](C(=O)N[C@@H](C)C(N)=O)NC(=O)[C@H]([C@@H](C)O)NC(=O)[C@H](C(C)C)NC(=O)[C@H](CC(C)C)NC(=O)[C@H](CCN)NC(=O)[C@@H](CC(C)C)NC(=O)[C@H](C)N(C)C1=O` [Compound 1400] ({CH2CO}-[4Pal]YDWV[Bip]I[NMeA][dL][Dab]LVTCA-NH2; thioether N-14), the IC50 came to 0.02 µM.
